Here are results for 39 compounds from patent US5811439A, “Thiazolidinedione derivatives, method for preparing the derivatives and pharmaceutical compositions containing same” (Senga Pharmaceutical Laboratory Inc., priority 1995, dated 1998).

The test system of this experiment is 3T3-L1 cells. The experiment can be described thus: Glucose-uptake test (2-DOG uptake) in 3T3-L1 cells. Particulars: cpm divided by amount of proteins; for activity at 50 µg/mL: Mus musculus, 3T3-L1, 24 h, 50 μg/ml, read-out: 2-DOG Uptake (%) at a concentration of 50 μg/ml. It is filed as cell-based. As to the method: Glucose-uptake tests as a means for screening compounds for the effect of reducing the blood sugar level were carried out according to the following procedures. 1) Cell: The following cells were used. 3T3-L1 (purchased from Dainippon Pharmaceutical Co. Ltd.) 2) Reagents: The following reagents were used. DMEM (GIBCO); FBS (GIBCO); […] DMSO: dimethylsulfoxide (Wako Pure Chemical Co., Ltd.); ACS2 (Amersham); urea (Wako Pure Chemical Co., Ltd.); protein-determining kit (Bio Rad Code No.). 3) Instrument: The following instrument was used in the test. 24-well plate (Falcon) 3T3-L1 cells were dispersed in a 10% FBS-containing DME medium in a cell concentration of 10000 cells/ml, the resulting cell suspension was dispensed into a 24-well plate in an amount of 1 ml per well and the cells were cultivated in a 5% CO2 -incubator at 37° C. for 5 days. After soaking up the medium in the wells, the plate was washed once with PBS in an amount of 2 ml/well. […] The cells were cultivated in a sample compound-containing medium at 37° C. for 24 hours in a 5%-CO2 -incubator. After the cultivation, the medium was soaked up and the plate was washed three times with 2 ml/well each of PBS. […] After washing with 2 ml/well of PBS, the PBS was sufficiently soaked up. […] The lysate was also inspected for the amount of proteins using 0.2 ml out of the rest of the lysate, according to the microassay method using a protein-determining kit.

`Cc1c(C)c2c(c(C)c1O)CCC(C)(COc1ccc(CC3SC(=O)NC3=O)cc1)O2` (racemic) [CS-045, (±)5-[4(6-hydroxy-2,5,7,8-tetramethylchroman-2-yl-methoxy)benzyl2,4-thazolidinedione, reference compound]: the activity at 50 µg/mL came to 172%.
On the same count and under the same terms, then `O=C1NC(=O)C(=Cc2cccc3c2ccn3Cc2ccccc2)S1` [Example 2, 5-(1-benzylindol-4-yl)methylene-2,4-thiazolidinedione], with 182%.
On the same count and under the same terms, then `O=C1NC(=O)C(=Cc2cccc3c2ccn3Cc2ccncc2)S1` [Example 5, 5-[1-(4-picolyl)indol-4-yl]methylene-2,4-thiazolidinedione], with 227%; and `O=C1NC(=O)C(Cc2cccc3c2ccn3Cc2ccncc2)S1` (stereo not drawn) [Example 6, 5-[1-(4-picolyl)indol-4-yl]methyl-2,4-thiazolidinedione], with 166%.
As for `COC(=O)c1ccc(Cn2ccc3c(C=C4SC(=O)NC4=O)cccc32)cc1` [Example 8, 5-[1-(4-methoxycarbonylbenzyl)indol-4-yl]methylene-2,4-thiazolidinedione], the activity at 50 µg/mL was found to be 172%.
In the case of `COC(=O)c1ccc(Cn2ccc3c(CC4SC(=O)NC4=O)cccc32)cc1` (stereo not drawn) [Example 9, 5-[1-(4-methoxycarbonylbenzyl)indol-4-yl]methyl-2,4-thiazolidinedione], the activity at 50 µg/mL turned out to be 180%.
Still for that read-out and setting: next, `O=C1NC(=O)C(Cc2cccc3c2ccn3C(=O)Cc2ccccc2)S1` (stereo not drawn) [Example 13, 5-(1-phenylacetylindol-4-yl)methyl-2,4-thiazolidinedione]: 150%.
On the same count and under the same terms, next, `O=C1NC(=O)C(Cc2cccc3c2ccn3S(=O)(=O)c2ccc(F)cc2)S1` (stereo not drawn) [Example 21, 5-[1-(4-fluorobenzenesulfonyl)indol-4-yl]-methyl-2,4-thiazolidinedione]: 162%; `Cc1ccc(S(=O)(=O)n2ccc3c(CC4SC(=O)NC4=O)cccc32)cc1` (stereo not drawn) [Example 24, 5-[1-(p-toluenesulfonyl)indol-4-yl]-methyl-2,4-thiazolidinedione]: 186%; `Cc1oc(-c2ccccc2)nc1Cn1ccc2c(C=C3SC(=O)NC3=O)cccc21` [Example 31, 5-{1-[(5-methyl-2-phenyloxazol-4-yl)methyl]indol-4-yl}methylene-2,4-thiazolidine-dione]: 208%.
Consider `Cc1oc(-c2ccccc2)nc1Cn1ccc2c(CC3SC(=O)NC3=O)cccc21` (stereo not drawn) [Example 32, 5-{1-[(5-methyl-2-phenyloxazol-4-yl)methyl]indol-4-yl}methyl-2,4-thiazolidinedione], for which the activity at 50 µg/mL turned out to be 215%.
Still for that read-out and setting: then `O=C1NC(=O)C(Cc2cccc3c2ccn3Cc2cccc(F)c2)S1` (stereo not drawn) [Example 50, 5-[1-(3-fluorobenzyl)indol-4-yl]-methyl-2,4-thiazolidinedione], with 201%; and `O=C1NC(=O)C(Cc2cccc3c2ccn3Cc2cccc(F)c2F)S1` (stereo not drawn) [Example 55, 5-[1-(2,3-difluorobenzyl)indol-4-yl]-methyl-2,4-thiazolidinedione], with 180%; and `O=C1NC(=O)C(Cc2cccc3c2ccn3Cc2cc(F)ccc2F)S1` (stereo not drawn) [Example 62, 5-[1-(2,5-difluorobenzyl)indol-4-yl]-methyl-2,4-thiazolidinedione], with 192%.
For the compound `O=C1NC(=O)C(Cc2cccc3c2ccn3Cc2ccc(F)c(F)c2)S1` (stereo not drawn) [Example 68, 5-[1-(3,4-difluorobenzyl)indol-4-yl]-methyl-2,4-thiazolidinedione], the activity at 50 µg/mL was determined as 202%.
On the same count and under the same terms, next, `O=C1NC(=O)C(Cc2cccc3c2ccn3Cc2cc(F)cc(F)c2)S1` (stereo not drawn) [Example 71, 5-[1-(3,5-difluorobenzyl)indol-4-yl]-methyl-2,4-thiazolidinedione]: 250%; `O=C1NC(=O)C(Cc2cccc3c2ccn3Cc2ccccc2C(F)(F)F)S1` (stereo not drawn) [Example 74, 5-[1-(2-trifluoromethylbenzyl)indol-4-yl]methyl-2,4-thiazolidinedione]: 210%.
The same measure, in the same setting: then `O=C1NC(=O)C(Cc2cccc3c2ccn3Cc2cccc(C(F)(F)F)c2)S1` (stereo not drawn) [Example 77, 5-[1-(3-trifluoromethylbenzyl)indol-4-yl]methyl-2,4-thiazolidinedione], with 185%; and `O=C1NC(=O)C(Cc2cccc3c2ccn3Cc2ccc(C(F)(F)F)cc2)S1` (stereo not drawn) [Example 80, 5-[1-(4-trifluoromethylbenzyl)indol-4-yl]methyl-2,4-thiazolidinedione], with 210%; and `O=C1NC(=O)C(Cc2cccc3c2ccn3Cc2ccc(C(F)(F)F)cc2C(F)(F)F)S1` (stereo not drawn) [Example 83, 5-{1-[2,4-bis(trifluoromethyl)-benzyl]indol-4-yl}methyl-2,4-thiazolidine-dione], with 199%.
Regarding `COc1ccccc1Cn1ccc2c(CC3SC(=O)NC3=O)cccc21` (stereo not drawn) [Example 86, 5-[1-(2-methoxybenzyl)indol-4-yl]methyl-2,4-thiazolidinedione], the activity at 50 µg/mL worked out at 161%.
On to `COc1cccc(Cn2ccc3c(CC4SC(=O)NC4=O)cccc32)c1` (stereo not drawn) [Example 89, 5-[1-(3-methoxybenzyl)indol-4-yl]methyl-2,4-thiazolidinedione], for which the activity at 50 µg/mL is 185%.
The same measure, in the same setting: then `COc1ccc(Cn2ccc3c(CC4SC(=O)NC4=O)cccc32)cc1OC` (stereo not drawn) [Example 92, 5-[1-(3,4-dimethoxybenzyl)indol-4-yl]methyl-2,4-thiazolidinedione], with 190%; and `COc1ccc(OC)c(Cn2ccc3c(CC4SC(=O)NC4=O)cccc32)c1` (stereo not drawn) [Example 98, 5-[1-(2,5-dimethoxybenzyl)indol-4-yl]methyl-2,4-thiazolidinedione], with 180%.
Regarding `N#Cc1cccc(Cn2ccc3c(CC4SC(=O)NC4=O)cccc32)c1` (stereo not drawn) [Example 101, 5-[1-(3-cyanobenzyl)indol-4-yl]methyl-2,4-thiazolidinedione], the activity at 50 µg/mL amounted to 240%.
Consider `N#Cc1ccc(Cn2ccc3c(CC4SC(=O)NC4=O)cccc32)cc1` (stereo not drawn) [Example 104, 5-[1-(4-cyanobenzyl)indol-4-yl]methyl-2,4-thiazolidinedione], for which the activity at 50 µg/mL is 290%.
The same measure, in the same setting: then `O=C1NC(=O)C(Cc2cccc3c2ccn3Cc2ccc3c(c2)OCO3)S1` (stereo not drawn) [Example 112, 5-(1-piperonylindole-4-yl)methyl-2,4-thiazolidinedione], with 155%; and `Cc1cccc(Cn2ccc3c(CC4SC(=O)NC4=O)cccc32)c1` (stereo not drawn) [Example 115, 5-[1-(3-methylbenzyl)indol-4-yl]methyl-2,4-thiazolidinedione], with 162%; and `O=C1NC(=O)C(Cc2cccc3c2ccn3CCc2ccccc2)S1` (stereo not drawn) [Example 121, 5-(1-phenethylindol-4-yl)methyl-2,4-thiazolidinedione], with 218%.
`O=C1NC(=O)C(Cc2cccc3c2ccn3Cc2ccccn2)S1` (stereo not drawn) [Example 133, 5-[1-(2-picolyl)indol-4-yl]methyl-2,4-thiazolidinedione]: the “2-DOG Uptake (%) at a concentration of 50 μg/ml” value (24 hours) was 240%.
Turning to `O=C1NC(=O)C(Cc2cccc3c2ccn3CCc2cccs2)S1` (stereo not drawn) [Example 139, 5-{1-[2-(thien-2-yl)ethyl]indol-4-yl}methyl-2,4-thiazolidinedione], the activity at 50 µg/mL was determined as 153%.
For the compound `Cc1nc(Cn2ccc3c(CC4SC(=O)NC4=O)cccc32)cs1` (stereo not drawn) [Example 142, 5-{1-[(2-methylthiazol-4-yl)methyl]indol-4-yl}methyl-2,4-thiazolidinedione], the activity at 50 µg/mL stood at 160%.
Regarding `O=C1NC(=O)C(=Cc2cccc3c2ccn3Cc2ccc3ccccc3n2)S1` [Example 147, 5-{1-[(quinol-2-yl)methyl]indol-4-yl}methylene-2,4-thiazolidinedione], the activity at 50 µg/mL came to 156%.
On the same count and under the same terms, next, `O=C1NC(=O)C(Cc2cccc3c2ccn3CC2CCc3ccccc3N2)S1` (stereo not drawn) [Example 148, 5-{1-[(1,2,3,4-tetrahydroquinol-2-yl)methyl]indol-4-yl}methyl-2,4-thiazolidinedione]: 153%; `O=C1NC(=O)C(Cc2cccc3[nH]ccc23)S1` (stereo not drawn) [Example 150, 5-(indol-4-yl)methyl-2,4-thiazolidinedione]: 191%.
As to `CCCCCCn1ccc2c(C=C3SC(=O)NC3=O)cccc21` [Example 155, 5-(1-hexylindol-4-yl)methylene-2,4-thiazolidinedione], the activity at 50 µg/mL was determined as 233%.
`CCC(CC)Cn1ccc2c(C=C3SC(=O)NC3=O)cccc21` [Example 158, 5-[1-(2-ethylbutyl)indol-4-yl]methylene-2,4-thiazolidinedione]: the activity at 50 µg/mL was 221%.
Still for that read-out and setting: then `CC(C)=CCCn1ccc2c(CC3SC(=O)NC3=O)cccc21` (stereo not drawn) [Example 165, 5-[1-(4-methyl-3-pentenyl)indol-4-yl]methyl-2,4-thiazolidinedione], with 285%; and `CC#CCn1ccc2c(CC3SC(=O)NC3=O)cccc21` (stereo not drawn) [Example 168, 5-[1-(2-butynyl)indol-4-yl]methyl-2,4-thiazolidinedione], with 172%.
